Test results: patent US20240299348A1, “MODULATORS OF TRPML, THEIR COMPOSITIONS AND METHODS OF USE” (Caraway Therapeutics, Inc., priority 2021, published 2024)
Where two headings read alike, the source gives them in different places.

Tests used:
[1] = test system: mIMCD-3 cells with the PKD1 gene knocked out; assay: Forskolin-induced cyst swelling, in vitro model of Polycystic Kidney Disease; format: cell-based, murine; conditions: 5 uM forskolin, 72 hours of compound treatment; DMSO 100%+/−7.1
Method: Shown in FIG. 3 are results from an experiment where mIMCD-3 cells with the PKD1 gene knocked out via CRISPR-generated frameshifting indels were seeded into 384 well plates containing Matrigel and cultured in standard growth media for 4 days until they formed spherical organoid cysts as described in Reference 1 (Booij et al., SLAS Discov. 2017 September; 22(8):974-984). TRPML1 activators and vehicle were added to the cells at the indicated concentrations, in combination with 5 uM forskolin to induce cyst swelling. Four replicates per treatment were used. Approximately half of the media in each well was replaced with fresh media containing compounds and forskolin every 24 hours. After 72 hours of compound treatment, the cysts were fixed and stained for nuclei (DAPI) and actin (fluorescent-conjugated phalloidin). The ability of the TRPML1 activators to inhibit forskolin-induced cyst swelling was assessed using the 2-dimensional cross-sectional area of each cyst as measured using a high content microscope with a 4× objective, and analyzed using proprietary Ominer software. Cyst areas were averaged within each well and normalized to the vehicle control (DMSO).

TRPML1 = TRPML1 (Homo sapiens, UniProt Q9GZU1, L15A/L16A); assay: GCaMP surface assay; format: cell-based
Chain of TRPML1 (Q9GZU1 with tags, fused parts or gaps L15A/L16A): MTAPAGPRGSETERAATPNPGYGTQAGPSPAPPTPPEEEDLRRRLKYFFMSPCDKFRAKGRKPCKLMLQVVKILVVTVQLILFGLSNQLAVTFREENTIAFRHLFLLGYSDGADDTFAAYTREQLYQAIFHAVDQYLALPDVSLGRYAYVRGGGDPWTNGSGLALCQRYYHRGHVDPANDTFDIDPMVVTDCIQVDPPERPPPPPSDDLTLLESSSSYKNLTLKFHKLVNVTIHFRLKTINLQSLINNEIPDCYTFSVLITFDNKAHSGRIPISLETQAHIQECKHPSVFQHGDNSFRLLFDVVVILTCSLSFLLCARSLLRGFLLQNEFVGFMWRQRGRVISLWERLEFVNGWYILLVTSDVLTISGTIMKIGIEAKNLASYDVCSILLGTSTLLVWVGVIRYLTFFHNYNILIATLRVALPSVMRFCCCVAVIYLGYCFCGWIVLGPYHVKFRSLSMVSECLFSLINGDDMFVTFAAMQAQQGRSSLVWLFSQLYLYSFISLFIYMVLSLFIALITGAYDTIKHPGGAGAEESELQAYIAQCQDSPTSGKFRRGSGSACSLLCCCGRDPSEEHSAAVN

hTRPML1 [2] = molecular target: T1, hTRPML1 (Homo sapiens, UniProt Q9GZU1); assay: TRPML1 fluorescent (Fluo-4) assay; format: cell-based; parameters: Secondary Screening: Fluo-4: hTRPML1: EC50 (M); HEK-293 Trex cells expressing hTRPML1; conditions: activation; HEK-293 Trex cells expressing hTRPML1; read-out: Secondary Screening: Fluo-4: hTRPML1: EC50
T1 sequence (Q9GZU1 whole entry L15A/L16A/L577A/L578A, form open): as the sequence (Q9GZU1 with tags, fused parts or gaps L15A/L16A) above
Method: (§1) HEK-293 Trex cells were stably transfected with a construct consisting of the human coding sequence for TRPML1 cloned into the […] plasmid pCDNA5 T/O. Mutations were introduced into the TRPML1 sequence to facilitate expression on the cell surface (Silvia Vergarajauregui, Rosa Puertollano Traffic. 2006 March; 7(3): 337-353). Briefly, the cells are cultured in 150 mm round tissue culture dishes containing 20 mL of media. The day before the assay the cells are rinsed with DPBS—Ca—Mg and then treated briefly with Trypsin-EDTA. The Trypsin-EDTA is diluted with growth media, and cells are counted. 38×10^6 cells are re-plated into 150 mm round tissue culture dishes in media containing 0.5 ug/mL doxycycline to induce expression of hTRPML1.
The day of the experiment cells are lifted from the plates as above and collected by centrifugation. The cells are then suspended in dye loading buffer consisting of Ringer's solution supplemented with 0.1% Pluronic Acid and 1 micromolar Fluo4-AM dye. Cells are loaded for ˜60 minutes in the dark with occasional mixing. The cells are collected by centrifugation, the loading media aspirated, and the cells resuspended in 25 mL Ringer's solution and incubated ˜60 minutes in the dark. The cells are again collected by centrifugation, rinsed in Ringer's Solution and resuspended to 0.2×10^6 cells/mL in modified Ringer's solution containing 10 mM calcium.
Compounds are dissolved to a concentration of 10 millimolar with DMSO. Compound plates are created by dispensing compounds into 384 well black wall clear bottom plates (Greiner 781091). Positive and negative controls are included on each plate. Typically, different amounts of each compound are tested ranging from 100 nanoMoles (20 micromolar final concentration) decreasing in half-log steps to 31 picoMoles (6 nanomolar final concentration). Each concentration is typically tested in triplicate.
(§2) 50 microliters of dye-loaded cells are dispensed into each well of the compound assay plate created above. The fluorescence in each well is then determined with an excitation wavelength of 480 nm and an emission wavelength of 540 nm using either a Molecular Devices SpectraMax multimode plate reader or a Hamamatsu FDSS/uCell plate imager.
(§3) The resulting fluorescence for each well is exported as an ascii file and loaded into our LIMS for analysis. The percent activity of each compound at each concentration is determined by comparison to the positive and negative control wells included in each plate.
(§4) EC50 values were calculated using a non-linear regression of Prism.

hTRPML3 = molecular target: T2, hTRPML3 (Homo sapiens, UniProt Q8TDD5); assay: TRPML3 fluorescent (Fluo-4) assay; format: cell-based
T2 construct: expressed in transfected cells; host or cells: HEK-293 Trex (by analogy, 'performed as above')
T2 sequence (Q8TDD5 1-553): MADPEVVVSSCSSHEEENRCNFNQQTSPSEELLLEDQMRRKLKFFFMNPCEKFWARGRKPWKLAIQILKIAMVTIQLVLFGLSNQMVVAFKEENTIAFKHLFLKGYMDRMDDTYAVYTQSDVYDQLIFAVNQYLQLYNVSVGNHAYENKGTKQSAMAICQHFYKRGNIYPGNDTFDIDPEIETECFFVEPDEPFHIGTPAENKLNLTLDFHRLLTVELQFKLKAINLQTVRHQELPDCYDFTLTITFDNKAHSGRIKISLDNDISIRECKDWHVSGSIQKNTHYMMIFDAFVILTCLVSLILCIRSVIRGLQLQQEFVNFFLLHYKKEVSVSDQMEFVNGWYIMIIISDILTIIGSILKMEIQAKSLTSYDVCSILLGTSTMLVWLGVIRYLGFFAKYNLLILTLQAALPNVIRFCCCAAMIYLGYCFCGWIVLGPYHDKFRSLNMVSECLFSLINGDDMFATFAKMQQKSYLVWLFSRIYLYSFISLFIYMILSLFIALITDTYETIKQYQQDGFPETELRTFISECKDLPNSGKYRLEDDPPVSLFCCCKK
Method: (§5) Assays for TRPML2 and TRPML3 were performed as above for TRPML1, by substituting the appropriate TRPML2 or TRPML3 subtype for the TRPML1.
as §4

hTRPML2 = molecular target: T3, hTRPML2 (Homo sapiens, UniProt Q8IZK6); assay: TRPML2 fluorescent (Fluo-4) assay; format: cell-based
T3 construct: expressed in transfected cells; host or cells: HEK-293 Trex (by analogy, 'performed as above')
T3 sequence (Q8IZK6 1-566): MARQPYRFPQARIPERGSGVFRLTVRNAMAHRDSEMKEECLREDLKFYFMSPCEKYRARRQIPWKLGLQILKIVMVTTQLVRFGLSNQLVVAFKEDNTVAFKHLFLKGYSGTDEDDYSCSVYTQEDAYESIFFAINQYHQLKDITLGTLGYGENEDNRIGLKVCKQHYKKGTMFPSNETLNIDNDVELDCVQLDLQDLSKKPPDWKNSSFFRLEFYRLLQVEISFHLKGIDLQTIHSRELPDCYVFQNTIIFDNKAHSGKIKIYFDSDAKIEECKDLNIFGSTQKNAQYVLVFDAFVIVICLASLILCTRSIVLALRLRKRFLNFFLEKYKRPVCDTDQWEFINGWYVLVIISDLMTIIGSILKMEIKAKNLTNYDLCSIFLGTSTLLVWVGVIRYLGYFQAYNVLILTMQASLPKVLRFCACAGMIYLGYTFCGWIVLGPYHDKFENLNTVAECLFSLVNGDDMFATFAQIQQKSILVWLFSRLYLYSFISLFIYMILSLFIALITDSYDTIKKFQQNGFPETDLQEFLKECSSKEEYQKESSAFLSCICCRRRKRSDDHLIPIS
Method: as §5, §4

TRPMLs = conditions: literature report; cited from earlier work
hTRPML1 [3] = molecular target: T1, hTRPML1; assay: TRPML1 fluorescent (Fluo-4) assay; format: cell-based; parameters: fused on or other part: Possibly a GCaMP calcium sensor fused on, for the parenthetic 'GCaMP surface assay' value
Method: as §1, with “38×10^6 cells are re-plated into 150 mm round tissue culture dishes in media containing 0.5 ug/mL doxycycline to induce expression of hTRPML1.” left out
as §2, §3, §4

[4] = test system: HeLa cells with the NPC1 gene knocked out; assay: Total hexosylceramides in HeLa cells with NPC1 gene knocked out; format: cell-based; conditions: NPC1 knockout HeLa, FIG. 1
Method: (§6) HeLa cells with the NPC1 gene knocked out via CRISPR-generated frameshifting indels were grown in standard cell culture conditions (DMEM high glucose with 10% FBS and penicillin/streptomycin). Cells were treated with the indicated concentrations of TRPML1 activators for 48 hours; media and compound were refreshed every 24 hours (FIG. 1). Two replicates per treatment were used. Cells were pelleted in PBS, frozen, and shipped to the Medical University of South Carolina (MUSC) for lipid quantitation by mass spectrometry. Lipid quantities were normalized to total inorganic phosphate in the cell sample as assessed by mass spectrometry. […] Statistical significance versus DMSO (p values indicated above) unpaired t-test.

[5] = test system: HeLa cells with the NPC2 gene knocked out; assay: Total hexosylceramides in HeLa cells with NPC2 gene knocked out; format: cell-based; conditions: NPC2 knockout HeLa
Method: as §6
Shown in FIG. 2 are results from the same experiment described in FIG. 1, but using HeLa cells with the NPC2 gene knocked out via CRISPR.

[6] = activation, read-out: Secondary Screening: Fluo-4: hTRPML3: EC50
[7] = activation, read-out: Secondary Screening: Fluo-4: hTRPML2: EC50

## CN(C)S(=O)(=O)c1ccc(S(=O)(=O)Nc2ccccc2N2CCN(c3ccc(Cl)cc3F)CC2)cc1 [Compound 125]
[1]
  cyst area normalized to the vehicle control (DMSO): 69.6%+/−4.4
TRPML1
  EC50: 0.453 µM

## CN(C)S(=O)(=O)c1ccc(S(=O)(=O)N[C@@H]2CCCCC[C@@H]2N2CCN(c3ccc(Cl)cc3F)CC2)cc1 (relative stereo) [Compound 122, Cis-N^1-(2-(4-(4-chloro-2-fluorophenyl)piperazin-1-yl)cycloheptyl)-N^4,N^4-dimethylbenzene-1,4-disulfonamide]
hTRPML1 [2]
  EC50: < 0.3 µM
hTRPML3; [6]
  EC50: 0.3 to 1 µM
hTRPML2; [7]
  EC50: 1 to 5 µM

## CN(c1ccccc1NS(=O)(=O)c1ccc(S(=O)(=O)N(C)C)cc1)C1CCN(C(=O)OC2CCCCC2)C1 (stereo not drawn) [Compound 124, cyclohexyl 3-((2-((4-(N,N-dimethylsulfamoyl)phenyl)sulfonamido)phenyl)(methyl)amino)pyrrolidine-1-carboxylate]
hTRPML1 [2]
  EC50: 0.3 to 1 µM
hTRPML3; [6]
  EC50: 0.3 to 1 µM
hTRPML2; [7]
  EC50: 1 to 5 µM

## CN(C1CCN(c2ccccc2F)C1)[C@H]1CCCC[C@@H]1NS(=O)(=O)c1ccc(S(=O)(=O)N(C)C)cc1 (relative stereo) [Compound 121, trans-N^1-(2-((1-(2-fluorophenyl)pyrrolidin-3-yl)(methyl)amino)-cyclohexyl)-N^4,N^4-dimethylbenzene-1,4-disulfonamide]
hTRPML1 [2]
  EC50: 1 to 5 µM
hTRPML3; [6]
  EC50: 0.3 to 1 µM
hTRPML2; [7]
  EC50: 1 to 5 µM

## CN(c1ccccc1NS(=O)(=O)c1ccc(S(=O)(=O)N(C)C)cc1)C1CCN(C(=O)Oc2ccccc2)C1 (stereo not drawn) [Compound 123, Phenyl 3-((2-((4-(N,N-dimethylsulfamoyl)phenyl)sulfonamido)phenyl)(methyl)amino)pyrrolidine-1-carboxylate]
hTRPML1 [2]
  EC50: 1 to 5 µM
hTRPML3; [6]
  EC50: 0.3 to 1 µM
hTRPML2; [7]
  EC50: 1 to 5 µM

## CC1CC(C)(C)N(C(=O)CN2C(=O)c3ccccc3C2=O)c2ccccc21 (stereo not drawn) [Compound 126, reference compound]
TRPMLs
  concentration needed to effectively activate TRPMLs: ~10 µM
hTRPML3; read-out: TRPML3 activation EC50 (Table 2, number)
  EC50: 1.58 µM
hTRPML1 [3]; Table 2 key
  TRPML1 activation EC50 (Table 2, class): B/C/D
hTRPML1 [3]; read-out: TRPML1 activation EC50 (Table 2, number)
  EC50: 3.52 µM
[1]
  cyst area normalized to the vehicle control (DMSO): 72.3%+/−2.5
hTRPML2; Table 2 key
  TRPML2 activation EC50 (Table 2, class): B/C/D
hTRPML2; read-out: TRPML2 activation EC50 (Table 2, number)
  EC50: 5.41 µM

## Cc1ccc(S(=O)(=O)Nc2ccccc2N2CCCCC2)s1 [Compound 127, reference compound]
[1]
  cyst area normalized to the vehicle control (DMSO): 79.6%+/−3.8
TRPML1
  EC50: 2.64 µM

## CN(c1ccccc1NS(=O)(=O)c1ccc(S(C)(=O)=O)cc1)C1CCN(c2ccc(Cl)cc2F)C1 (stereo not drawn) [Compound 113, N-(2-((1-(4-Chloro-2-fluorophenyl)pyrrolidin-3-yl)(methyl)amino)phenyl)-4-(methylsulfonyl)benzene-sulfonamide]
hTRPML1 [2]
  EC50: 0.3 to 1 µM
hTRPML3; [6]
  EC50: 1 to 5 µM
hTRPML2; [7]
  EC50: > 5 µM

## CN(c1ccccc1NS(=O)(=O)c1ccc(S(=O)(=O)N(C)C)cc1)C1CCN(c2ccc(Cl)cc2F)C1 (stereo not drawn) [Compound 101, N^1-(2-((1-(4-chloro-2-fluorophenyl)pyrrolidin-3-yl)(methyl)amino)phenyl)-N^4,N^4-dimethylbenzene-1,4-disulfonamide]
hTRPML1 [2]
  EC50: 0.3 to 1 µM
hTRPML3; [6]
  EC50: < 0.3 µM
[1]
  cyst area normalized to the vehicle control (DMSO): 51.2%+/−1.6
[4]
  total hexosylCeramides compared with DMSO vehicle (in words): reduced
[5]; 48 hours treatment, DMSO 6.45+/−0.28
  total HexosylCeramides: 3.48+/−0.20 HexCer/nmol Pi/sample
[5]; FIG. 2
  total hexosylCeramides compared with DMSO vehicle (in words): reduced
hTRPML2; [7]
  EC50: < 0.3 µM
